Reference: patent US20070092503A1, “Human alkaline sphingomyelinase and use thereof” (priority 2003, published 2007)

How the values were obtained:
human Alk-Smase [1] = target: T1, human Alk-Smase (Homo sapiens, UniProt Q6UWV6); assay: Alk-Smase activity in the presence of metal ions, detergents, bile salts, glutathione; assay type: biochemical
T1 construct: Human Alk-Smase has now been purified from small intestinal content; from tissue; host or cells: human small intestinal (ileostomy) content
T1 sequence (Q6UWV6 22-458): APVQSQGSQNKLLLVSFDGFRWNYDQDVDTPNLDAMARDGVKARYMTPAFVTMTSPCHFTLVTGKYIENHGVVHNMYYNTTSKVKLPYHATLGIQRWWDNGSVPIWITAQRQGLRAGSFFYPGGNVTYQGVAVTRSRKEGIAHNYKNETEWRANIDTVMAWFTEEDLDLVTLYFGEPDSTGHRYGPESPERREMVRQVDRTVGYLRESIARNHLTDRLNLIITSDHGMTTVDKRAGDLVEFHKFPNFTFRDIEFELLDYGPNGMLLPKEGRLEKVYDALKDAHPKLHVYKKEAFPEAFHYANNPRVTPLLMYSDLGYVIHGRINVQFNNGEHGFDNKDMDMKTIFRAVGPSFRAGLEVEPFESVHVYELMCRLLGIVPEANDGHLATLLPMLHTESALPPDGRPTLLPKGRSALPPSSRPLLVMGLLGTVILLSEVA
Procedure: As bile salts are important factors for lipid digestion, the effects of different bile salts on human Alk-Smase were investigated. […] The activities were determined in the presence of different concentrations of bile salts.

bacterial neutral Smase = conditions: reduced form
human Alk-Smase [2] = target: T1, human Alk-Smase; assay: Alk-Smase activity in the presence of metal ions, detergents, bile salts, glutathione; assay type: biochemical; remark: listed apart in the source
[3] = Lysophospholipase test with 14C-palmitoyl labelled lysophosphatidylcholine, TLC separation; assay type: biochemical
Procedure: At present the most intriguing functional similarity between Alk-Smase and NPP is the earlier observation that NPP2 has lysophospholipase D activity (M Umezo-Gozo et al J Cell Biol 2002; 158:227-33). To determine whether Alk-Smase also has lysophospholipase D activity, a trace amount of ^14C-palmitoyl labelled 1palmitoyl-lysosphosphatidylcholine was incubated with Alk-Smase using the optimal incubation conditions previously described (R D Duan and Å Nilsson Methods Enzymol 2000; 311:276-86). Lipids were then extracted according to known methods (Bligh and Dyer J Biochem Physiol 1959; 37:911-917), and separated on silica gel G plates that were developed in chloroform:methanol:water:acetic acid 25:20:0.3:3. The silica gel separates lysophosphatidylcholine and lysophosphatidic acid that are formed if there is a lysophospholipase D and monoglyceride formed by lysophospholipase C. […] It is therefore further disclosed herein that Alk-Smase may also influence cellular functions by removing lysophosphatidylcholine which can then not be converted to lysophosphatidic acid. Lysophosphatidic acid is a metabolite that stimulates growth of colon tumour cells. Our earlier studies have shown that Alk-Smase is not a general phosphlipase C since it has low activity against phosphatidylcholine (RD Duan, A Nilsson Methods Enzymol 2000; 311:276-86).

[4] = system: HT29 human colon cancer cells; assay: Proliferation of HT29 colon cancer cells, WST reagent; assay type: cell-based; conditions: for effect on proliferation / cell growth of HT29 cells: different doses, 18 h, WST reagent; for effect on DNA synthesis of HT-29 cells: enzyme added to cells in culture
Procedure: (§1) HT29 human colon cancer cells were incubated in RMPI-1640 medium with L-glutamine, containing antibiotics and 10% (v/v) heat inactivated fetal calf serum. At the exponential growth phase, the cells were incubated with purified rat Alk-Smase at different doses for 18 h. The cell proliferation rates were measured by WST reagent. Results are Mean± SD of three individual duplicate experiments.
Experimental conditions for the antiproliferative inhibition were that HT 29 cells were incubated with rat Alk-Smase at different doses for 18 h. The cell proliferation rates were measured by WST reagent.
as §1, with “L-glutamine” for “L-glutamine,”, “Mean±SD” for “Mean± SD”

Cos-7 cells = assay: Alk-Smase activity of transfected cells (cell lysate and medium); assay type: cell-based
Procedure: Cos 7 cells are transfected with either the wild type of Alk-Smase cDNA (sequence 21-1397 of ID No 5, reading frame) which encodes Seq ID No 4, or transfected with the Alk-Smase cDNA sequence from 21-1285 (C-truncated), which encodes a 415 amino acid sequence (Seq ID No 6). After transfection, the Alk-Smase activity in the medium and in the cell lysate was determined.
pCMV-sports6-Smase is transfected into mammalian Cos-7 cells. To transfect the cells with pCMV-sports6-Smase 4×10^5 Cos-7 cells are seeded in a 25 cm^2 flask in 4 ml of Dulbecco's modified Eagle's medium with 10% heat inactivated fetal calf serum and 2 mM Glutamine.
The cells are incubated until 90% confluent.
Cells are then transfected with 5 microgram pCMV-sports6-Smase and 16 microgram lipofectamine 2000™ in each flask followed by incubation for 48 h.
Untransfected cells are exposed to lipofectamine and treated the same as above.
At the end of the incubation, medium is collected and cells are lysed by a 50 mM Tris-HCl buffer containing 1 mM PMSF, 2 mM EDTA, 0.5 mM Dtt, 10 microgram/ml leupeptin, 10 microgram/ml aprotinine and 10 mM TC.
Cells are kept on ice, e.g., for 10 minutes, and then sonicated for 10 sec.
After centrifugation at 12000 g for 10 minutes at 4° C., human Alk-Smase activity and protein concentrations were determined.
Cos-7 cells transfected with a mock-vector is used as a control.

[5] = Characterisation of Alk-Smase: sphingomyelin hydrolysis (pH dependence, hydrolytic capacity); conditions: for hydrolytic capacity (Vmax, Lineweaver-Burk plot): sphingomyelin hydrolysed: by 1 mg of the enzyme in one hour
Procedure: To distinguish whether the enzyme was different from the Mg dependent neutral Smase, activity at pH 7.5 in the presence of 4 mM Mg2+ in comparison wit pH 8.5 in the presence of 2 mM EDTA was assayed.

In the case of Triton X 100, the “effect on human Alk-Smase activity” value (human Alk-Smase [1]; in the presence or absence of TC (10 mM)) is reported as “strongly inhibits”.

For `N[C@@H](CCC(=O)N[C@@H](CS)C(=O)NCC(=O)O)C(=O)O` [glutathione], the “reduction of Alk-Smase activity” value (human Alk-Smase [1]; 7.5 mM glutathione, reduced form) was 1%, the “effect on Alk-Smase activity (in words)” value (human Alk-Smase [1]; reduced form of glutathione) was “only slightly reduced” and the “reduction of neutral Smase activity” value (bacterial neutral Smase; 7.5 mM glutathione) was 98%. For the same molecule, the “concentration above which neutral Smase activity is sharply abolished” value (bacterial neutral Smase) was “higher than 5 mM”.

In the case of `C[C@H](CCC(=O)NCCC[N+](C)(C)CCCS(=O)(=O)[O-])[C@H]1CC[C@H]2[C@@H]3[C@H](O)C[C@@H]4C[C@H](O)CC[C@]4(C)[C@H]3C[C@H](O)[C@]12C` [CHAPS], the “effect on TC stimulation of Alk-Smase” value (human Alk-Smase [1]) is reported as “blocked the stimulatory effect of TC” and the “effect on Alk-Smase activity” value (human Alk-Smase [1]; very low concentration (0.025 mM)) is reported as “only slightly increased the activity”.

`[Zn+2]` [Zn2^+] gave an IC50 (human Alk-Smase [1]; read-out: concentration giving 50% inhibition of Alk-Smase activity) of 15 µM.

With `O=C(O)CN(CCN(CC(=O)O)CC(=O)O)CC(=O)O` [EDTA] the “inhibition of Alk-Smase by EDTA” value (human Alk-Smase [1]) was “not inhibited” and the “reversal of the Zn2+ inhibition of Alk-Smase” value (human Alk-Smase [1]; 2 mM EDTA) was “Most of the inhibitory effect of Zn2+ was reversed”.

In the case of `C[C@H](CCC(=O)NCCS(=O)(=O)O)[C@H]1CC[C@H]2[C@@H]3[C@H](O)C[C@@H]4C[C@H](O)CC[C@]4(C)[C@H]3CC[C@]12C` [TCDC, taurochenodeoxycholate], the “maximal stimulating effect of bile salt on human Alk-Smase” value (human Alk-Smase [1]; maximum at the CMC of each bile salt) is reported as “far more effective than other bile salts”.

With `[Mg+2]` [Mg] the “effect of increasing concentrations of divalent cation on Alk-Smase activity” value (human Alk-Smase [2]) was “slightly increased”.

For `[Ca+2]` [Ca2^+], the “effect of increasing concentrations of divalent cation on Alk-Smase activity” value (human Alk-Smase [2]) was “slightly increased”.

B1: human Alk-Smase: human intestinal alkaline sphingomyelinase, 458 amino acid protein purified from small intestinal content (protein, listed as Homo sapiens)
chain: MRGPAVLLTVALATLLAPGAGAPVQSQGSQNKLLLVSFDGFRWNYDQDVDTPNLDAMARDGVKARYMTPAFVTMTSPCHFTLVTGKYIENHGVVHNMYYNTTSKVKLPYHATLGIQRWWDNGSVPIWITAQRQGLRAGSFFYPGGNVTYQGVAVTRSRKEGIAHNYKNETEWRANIDTVMAWFTEEDLDLVTLYFGEPDSTGHRYGPESPERREMVRQVDRTVGYLRESIARNHLTDRLNLIITSDHGMTTVDKRAGDLVEFHKFPNFTFRDIEFELLDYGPNGMLLPKEGRLEKVYDALKDAHPKLHVYKKEAFPEAFHYANNPRVTPLLMYSDLGYVIHGRINVQFNNGEHGFDNKDMDMKTIFRAVGPSFRAGLEVEPFESVHVYELMCRLLGIVPEANDGHLATLLPMLHTESALPPDALLVADGPCLPSLSQAKGCMPLSPAAPTPAWLLWCW
With B1 the “formation of lysophosphatidic acid (lysophospholipase D activity)” value [3] was “not demonstrated”, the “lysophosphatidylcholine degraded to 14C-monoglyceride” value ([3]; in one hour, optimal incubation conditions) was 80% and the “effect on proliferation / cell growth of HT29 cells” value [4] was “inhibit proliferation”. For the same molecule, the “effect on DNA synthesis of HT-29 cells” value [4] was “decreased DNA synthesis”, the “increase of human Alk-Smase activity in the medium” value (Cos-7 cells; Cos-7 cells transfected with pCMV-sports6-Smase, 48 h) was 5 fold and the “activity at pH 8.5 with 2 mM EDTA compared with pH 7.5 with 4 mM Mg2+” value [5] was “significantly higher”. The “hydrolytic capacity (Vmax, Lineweaver-Burk plot): sphingomyelin hydrolysed” value [5] was 11 mmol, the “hydrolytic capacity (Vmax, Lineweaver-Burk plot): sphingomyelin hydrolysed” value ([5]; listed as Alk-Smase) was “about 11 mmole” and the “activity at pH 7.5 relative to maximal activity” value ([5]; pH 7.5 versus pH 8.5) was “about 68%”.

B2: amino acid 1-415: C-truncated human Alk-Smase, 415 amino acid sequence encoded by cDNA 21-1285 (protein, listed as Homo sapiens)
chain: MRGPAVLLTVALATLLAPGAGAPVQSQGSQNKLLLVSFDGFRWNYDQDVDTPNLDAMARDGVKARYMTPAFVTMTSPCHFTLVTGKYIENHGVVHNMYYNTTSKVKLPYHATLGIQRWWDNGSVPIWITAQRQGLRAGSFFYPGGNVTYQGVAVTRSRKEGIAHNYKNETEWRANIDTVMAWFTEEDLDLVTLYFGEPDSTGHRYGPESPERREMVRQVDRTVGYLRESIARNHLTDRLNLIITSDHGMTTVDKRAGDLVEFHKFPNFTFRDIEFELLDYGPNGMLLPKEGRLEKVYDALKDAHPKLHVYKKEAFPEAFHYANNPRVTPLLMYSDLGYVIHGRINVQFNNGEHGFDNKDMDMKTIFRAVGPSFRAGLEVEPFESVHVYELMCRLLGIVPEANDGHLATLLPMLHT
In the case of B2, the “Alk-Smase activity produced, C-truncated versus full sequence cDNA” value (Cos-7 cells; transfected cells, FIG. 13) is reported as “higher”.

B3: rat Alk-Smase: purified rat intestinal alkaline sphingomyelinase (protein, UniProt Q5EZ72 22-439, looked up)
Ectonucleotide …: GPVQRQQQHKLLLVSFDGFRWNYDQDVETPNLDSMAQEGVKARYMTPAFVTMTSPCHFTLVTGKYIENHGVVHNMFYNTTNKVRLPYHATLGIQRWWDNGSIPIWITAQRQGLKTGSFFYPGGNVTYQGEAVTMSRKEGVLHNYKNETEWRANVDTVMKWFTEEDVSLVTLYFGEPDSTGHKYGPESQERKDMVKQVDRTVGYLRDSIKRHHLTDSLNLIITSDHGMTTVNKKASDLVEFHKFPNFTFRDIEFELLDYGPNGMLIPKEGMLEKVYSVLKDAHPRLHVYKKEDFPKTFHYANNPRITSLLMYSDLGYVIHGRVNVQFNSGEHGFDNQDMDMKTIFRAVGPSFKAGLEVEPFESVHVYELMCQLLGIVPEPNDGHPGVLQPMLRSGSPLSRQHHLVVVLMGILTGLAKVV
In the case of B3, the “effect on proliferation / cell growth of HT29 cells” value [4] is reported as “dose-dependently inhibited cell growth”, the “effect on proliferation / cell growth of HT29 cells” value ([4]; listed as rat alkaline Smase) is reported as “inhibit proliferation” and the “effect on DNA synthesis of HT-29 cells” value [4] is reported as “decreased DNA synthesis”.
